These are literature values, as cited in US7709647B2, “Tetrahydroquinoline cannabinoid receptor modulators” (Bristol-Myers Squibb Company, priority 2005, dated 2010).

The conditions of series [1]: chronic administration for two weeks.
Series [2] relates to human subjects. The note with it: 16 week trial period, published Phase IIb data.

`Cc1c(C(=O)NN2CCCCC2)nn(-c2ccc(Cl)cc2Cl)c1-c1ccc(I)cc1` [AM-251]: in series [1], the body weight entry is reported as “substantial body weight reduction”.

`Cc1c(C(=O)NN2CCCCC2)nn(-c2ccc(Cl)cc2Cl)c1-c1ccc(Cl)cc1` [SR-141716]: the body weight entry in series [2] is on record as “dose-dependently reduced body weight”.
